Literature values, collected in patent US20040167355A1, “Hydrocarbon products and methods of preparing hydrocarbon products” (priority 2003, published 2004).

Key:
[1] = 25° C.; 450 ppm surfactant, 420 ppm hardness (3:1 Ca++:Mg++)
[2] = 1% solution of the sodium salt of the surfactant

SMILES | loss of surfactant in hard water [1] | Krafft temperature [2]
CCCCCCCCCCC(C)c1ccc(S(=O)(=O)O)cc1 (stereo not shown) [2-Phenyl Dodecyl Benzene Sulfonate] | 100% | 36 °C
CCCCCCCC(C)CCC(C)c1ccc(S(=O)(=O)O)cc1 (stereo not shown) [5-Methyl-2-Phenyl Dodecyl Benzene Sulfonate] | 5% | 16 °C
